ChEMBL document CHEMBL1255373, “In vitro antibacterial activity of CE-156811, a novel analog derived from hygromycin A” (2008)
In brackets after ≈: the same amount, converted by molar mass.

Columns and labels:
Format in all cases: functional
[1] = system: Staphylococcus; experiment: Antibacterial activity against coagulase-negative Staphylococcus clinical isolate by broth microdilution method
[2] = system: Enterococcus faecalis; experiment: Antibacterial activity against linezolid-resistant Enterococcus faecalis 03A1128 by broth microdilution method
[3] = system: Enterococcus faecium; experiment: Antibacterial activity against linezolid-resistant Enterococcus faecium 03B1075 by broth microdilution method
[4] = system: Enterococcus faecium; experiment: Antibacterial activity against linezolid-resistant Enterococcus faecium 03B1077 by broth microdilution method
[5] = system: Enterococcus faecium; experiment: Antibacterial activity against linezolid-resistant Enterococcus faecium 03B1074 by broth microdilution method
[6] = system: Streptococcus pneumoniae; experiment: Antibacterial activity against penicillin-nonsusceptible Streptococcus pneumoniae clinical isolate by broth microdilution method
[7] = system: Corynebacterium sp.; experiment: Antibacterial activity against Corynebacterium sp. by broth microdilution method
[8] = system: Staphylococcus aureus; experiment: Antibacterial activity against linezolid-resistant Staphylococcus aureus 01A1221 by broth microdilution method
[9] = system: Enterococcus faecium; experiment: Antibacterial activity against linezolid-resistant Enterococcus faecium 03B1078 by broth microdilution method
[10] = system: Enterococcus faecalis; experiment: Antibacterial activity against vancomycin-resistant Enterococcus faecalis clinical isolate by broth microdilution method
[11] = system: Enterococcus faecium; experiment: Antibacterial activity against linezolid-resistant Enterococcus faecium 03B1076 by broth microdilution method
[12] = system: Listeria monocytogenes; experiment: Antibacterial activity against Listeria monocytogenes clinical isolate by broth microdilution method
[13] = system: Enterococcus faecium; experiment: Antibacterial activity against vancomycin-resistant Enterococcus faecium clinical isolate by broth microdilution method
[14] = system: Streptococcus pyogenes; experiment: Antibacterial activity against Streptococcus pyogenes clinical isolate by broth microdilution method
[15] = system: Staphylococcus aureus; experiment: Antibacterial activity against glycopeptide-intermediate Staphylococcus aureus clinical isolate by broth microdilution method
[16] = system: Staphylococcus aureus; experiment: Antibacterial activity against methicillin-susceptible Staphylococcus aureus clinical isolate by broth microdilution method
[17] = system: Staphylococcus aureus; experiment: Antibacterial activity against methicillin-resistant Staphylococcus aureus clinical isolate by broth microdilution method
[18] = system: Streptococcus pneumoniae; experiment: Antibacterial activity against penicillin-susceptible Streptococcus pneumoniae clinical isolate by broth microdilution method
[19] = system: Enterococcus faecium; experiment: Antibacterial activity against linezolid-resistant Enterococcus faecium 03B1073 by broth microdilution method
[20] = system: Enterococcus faecium; experiment: Antibacterial activity against vancomycin-susceptible Enterococcus faecium clinical isolate by broth microdilution method
[21] = system: Staphylococcus aureus; experiment: Antibacterial activity against linezolid-resistant Staphylococcus aureus 01A1220 by broth microdilution method
[22] = system: Enterococcus faecalis; experiment: Antibacterial activity against vancomycin-susceptible Enterococcus faecalis clinical isolate by broth microdilution method
[23] = system: Staphylococcus epidermidis; experiment: Antibacterial activity against methicillin-susceptible Staphylococcus epidermidis clinical isolate by broth microdilution method
[24] = system: Enterococcus faecalis; experiment: Antibacterial activity against […] Enterococcus faecalis ATCC 29212 by broth microdilution method

Structure (SMILES)	MIC50 [1]	MIC90 [1]	MIC [2]	MIC [3]	MIC [4]	MIC [5]	MIC50 [6]	MIC90 [6]	MIC50 [7]	MIC90 [7]	MIC [9]	MIC50 [10]	MIC90 [10]	MIC [12]	MIC50 [12]	MIC90 [12]	MIC50 [13]	MIC90 [13]	MIC50 [16]	MIC90 [16]	also measured
CC(=O)NC[C@H]1CN(c2ccc(N3CCOCC3)c(F)c2)C(=O)O1 [LINEZOLID]	2 µg/mL (≈ 5.93 µM)	2 µg/mL (≈ 5.93 µM)	> 32 µg/mL	32 µg/mL (≈ 94.9 µM)	8 µg/mL (≈ 23.7 µM)	32 µg/mL (≈ 94.9 µM)	0.5 µg/mL (≈ 1.48 µM)	1 µg/mL (≈ 2.96 µM)	1 µg/mL (≈ 2.96 µM)	1 µg/mL (≈ 2.96 µM)	32 µg/mL (≈ 94.9 µM)	2 µg/mL (≈ 5.93 µM)	2 µg/mL (≈ 5.93 µM)	2 µg/mL (≈ 5.93 µM)	2 µg/mL (≈ 5.93 µM)	2 µg/mL (≈ 5.93 µM)	2 µg/mL (≈ 5.93 µM)	4 µg/mL (≈ 11.9 µM)	2 µg/mL (≈ 5.93 µM)	2 µg/mL (≈ 5.93 µM)	MIC [8]: > 32 µg/mL; MIC [11]: 32 µg/mL (≈ 94.9 µM); MIC50 [14]: 2 µg/mL (≈ 5.93 µM); MIC90 [14]: 2 µg/mL (≈ 5.93 µM); MIC [15]: 0.5 µg/mL (≈ 1.48 µM); MIC [17]: 1 µg/mL (≈ 2.96 µM); MIC50 [17]: 1 µg/mL (≈ 2.96 µM); MIC90 [17]: 1 µg/mL (≈ 2.96 µM); MIC50 [18]: 1 µg/mL (≈ 2.96 µM); MIC90 [18]: 1 µg/mL (≈ 2.96 µM); MIC [19]: 2 µg/mL (≈ 5.93 µM); MIC [20]: 2 µg/mL (≈ 5.93 µM); MIC50 [20]: 2 µg/mL (≈ 5.93 µM); MIC90 [20]: 2 µg/mL (≈ 5.93 µM); MIC [21]: > 32 µg/mL; MIC50 [22]: 2 µg/mL (≈ 5.93 µM); MIC90 [22]: 2 µg/mL (≈ 5.93 µM); MIC50 [23]: 0.5 µg/mL (≈ 1.48 µM); MIC90 [23]: 1 µg/mL (≈ 2.96 µM)
CN[C@H](CC(C)C)C(=O)N[C@H]1C(=O)N[C@@H](CC(N)=O)C(=O)N[C@H]2C(=O)N[C@H]3C(=O)N[C@H](C(=O)N[C@H](C(=O)O)c4cc(O)cc(O)c4-c4cc3ccc4O)[C@H](O)c3ccc(c(Cl)c3)Oc3cc2cc(c3O[C@@H]2O[C@H](CO)[C@@H](O)[C@H](O)[C@H]2O[C@H]2C[C@](C)(N)[C@H](O)[C@H](C)O2)Oc2ccc(cc2Cl)[C@H]1O [VANCOMYCIN]	2 µg/mL (≈ 1.38 µM)	2 µg/mL (≈ 1.38 µM)	1 µg/mL (≈ 0.69 µM)	> 32 µg/mL	> 32 µg/mL	> 32 µg/mL	0.25 µg/mL (≈ 0.173 µM)	0.25 µg/mL (≈ 0.173 µM)	0.5 µg/mL (≈ 0.345 µM)	1 µg/mL (≈ 0.69 µM)	> 32 µg/mL	> 32 µg/mL	> 32 µg/mL	1 µg/mL (≈ 0.69 µM)	1 µg/mL (≈ 0.69 µM)	1 µg/mL (≈ 0.69 µM)	> 32 µg/mL	> 32 µg/mL	0.5 µg/mL (≈ 0.345 µM)	1 µg/mL (≈ 0.69 µM)	MIC50 [17]: 1 µg/mL (≈ 0.69 µM); MIC90 [17]: 2 µg/mL (≈ 1.38 µM); MIC [18]: 0.25 µg/mL (≈ 0.173 µM); MIC50 [18]: 0.25 µg/mL (≈ 0.173 µM); MIC90 [18]: 0.25 µg/mL (≈ 0.173 µM); MIC [19]: > 32 µg/mL; MIC [24]: 2 µg/mL (≈ 1.38 µM); MIC50 [20]: 1 µg/mL (≈ 0.69 µM); MIC90 [20]: 1 µg/mL (≈ 0.69 µM); MIC50 [22]: 2 µg/mL (≈ 1.38 µM); MIC90 [22]: 4 µg/mL (≈ 2.76 µM); MIC50 [23]: 1 µg/mL (≈ 0.69 µM); MIC90 [23]: 2 µg/mL (≈ 1.38 µM)
